Data from paper PMC11324046, “Second-generation piperazine derivatives as promising radiation countermeasures” (RSC Medicinal Chemistry, 2024).

Legend:
in vitro = conditions: male, human
Procedure: (§1) To represent the overall inhibitory activity of each compound, viability was calculated as the mean of at least three independent measurements. The purpose was to determine the optimal non-toxic concentration for subsequent use in radioprotection tests.
(§2) Whole blood from a healthy donor was diluted 1 : 1 with Dulbecco's phosphate buffered saline (Sigma-Aldrich, St. Louis, MO, USA). The diluted blood was slowly and carefully pipetted onto an equal volume of Histopaque®-1077 (Sigma-Aldrich, St. Louis, MO, USA). The entire process was carried out at room temperature. Subsequently, centrifugation was performed at 700 × g with the slowest acceleration and deceleration for 20 min at 20 °C. The resulting PBMCs ring was aspirated and centrifuged at 450 × g for 10 min at 20 °C with normal acceleration and deceleration. The cells were washed twice with RPMI 1640 medium with GlutaMAX (Gibco by Thermo Fisher Scientific, Waltham, MA, USA). After the second wash and centrifugation, the cells were diluted with cultivation medium RPMI 1640 with GlutaMAX supplemented with 20% inactivated fetal bovine serum (both Gibco by Thermo Fisher Scientific, Waltham, MA, USA) and 1% antibiotic solution of penicillin, 10 000 IU ml^−1 and streptomycin, 10 mg ml^−1 (Sigma-Aldrich, St. Louis, MO, USA). At the end, the cells were counted using Türk's solution.
(§3) PBMCs were plated into 96-well plates at a cell density of approximately 5 × 10^4 cells per well in a volume of 100 μl. Cells were treated with tested compounds in concentrations of 10, 20, 50, 100, 200, 500, and 1000 μM to determine the optimal non-toxic concentration for each. Cells were incubated for 48 h in a humidified atmosphere with 5% CO2 at 37 °C. 20 μl of MTS – CellTiter 96® AQueous One Solution Cell Proliferation Assay (Promega, Madison, WI, USA) was added to each well 4 h before spectrometric analysis. Cell viability was then determined by measuring absorbance at 490 nm using the Synergy H1 instrument by BioTek. The absorbance of the cell-free culture medium was used as a blank and subtracted from the absorbance readings obtained during the experiment. The viability of untreated control cells was set as 100%.

PBMCs = assay: in vitro; conditions: 48 h
Procedure: as §1, §2, §3

[1] = WST-1 proliferation assay, HT-29; type: cell-based; conditions: human, HT-29 cells (colorectal adenocarcinoma), vs 0.1% DMSO control = 100%, mean ± standard deviation
Procedure: (§4) A thorough analysis of antiproliferative activity was performed across various cell culture types representing different histotypes: leukemia (Jurkat, MOLT-4), lung adenocarcinoma (A549), colorectal adenocarcinoma (HT-29), pancreatic carcinoma (PANC-1), breast adenocarcinoma (MCF-7), osteosarcoma (SAOS-2), and one non-cancerous cell line (fetal lung fibroblasts MRC-5). The cell lines were exposed to the newly synthesized compounds at a concentration of 100 μM for 48 h in a single-dose treatment. Changes in cell proliferation compared to the vehicle 0.1% dimethyl sulfoxide (DMSO) control were determined using the WST-1 assay, which is based on mitochondrial dehydrogenase metabolic activities. […] The overall cytotoxic activity of each compound was expressed as growth percent (GP) – the mean of the proliferation of all cell lines treated with the same compound.
(§5) Selected human tumor and non-tumor cell lines Jurkat (acute T-cell leukemia), MOLT-4 (acute lymphoblastic leukemia), A549 (lung carcinoma), HT-29 (colorectal adenocarcinoma), PANC-1 (pancreas epithelioid carcinoma), MCF-7 (breast adenocarcinoma), SAOS-2 (osteosarcoma) and MRC-5 (normal lung fibroblasts) were purchased from either American Type Culture Collection (ATCC; VA, USA) or Sigma-Aldrich (St. Louis, MO, USA) and cultured according to the provider's culture method guidelines. All cell lines were maintained at 37 °C in a humidified 5% carbon dioxide and 95% air incubator. Cells in the maximum range of either 10 passages for the adherent cell lines (A549, HT-29, PANC-1, MCF-7, SAOS-2, and MRC-5), or 20 passages for suspension cell lines (Jurkat, MOLT-4,) and in an exponential growth phase were used for this study. Screening of the antiproliferative effect and growth percent calculation were conducted as follows: each cell line was seeded at previously established optimal density (1–50 × 10^3 cells per well) in a 96-well plate (TPP, Trasadingen, Switzerland) and cells were allowed to settle overnight. Cells were treated for 48 h with compounds at a final concentration of 100 μM. At the end of the cultivation period, the WST-1 proliferation assay (Roche, Basel, Switzerland) was performed according to the manufacturer's protocol. The absorbance was measured at 440 nm using a Tecan Spark multimode microplate reader (Tecan, Mannedorf, Switzerland). Each value is the mean of three independent experiments and represents the percentage of proliferation (100% cell proliferation for 0.1% DMSO mock-treated control cells). The GP value was calculated for each compound tested. GP represents the mean of the percentage proliferation decrease of all cell lines treated with the same compound.

[2] = WST-1 proliferation assay, SAOS-2; type: cell-based; conditions: human, SAOS-2 cells (osteosarcoma), vs 0.1% DMSO control = 100%, mean ± standard deviation
Procedure: as §4, §5

[3] = WST-1 proliferation assay, MRC-5; type: cell-based; conditions: human, MRC-5 cells (normal lung fibroblasts), vs 0.1% DMSO control = 100%, mean ± standard deviation
Procedure: as §4, §5

[4] = peripheral blood mononuclear cells (PBMCs)

Structure (SMILES)	viability at 48 h, 10 µM (in vitro) [%]	viability at 48 h, 20 µM (in vitro) [%]	viability at 48 h, 50 µM (in vitro) [%]	viability at 48 h, 100 µM (in vitro) [%]	viability at 48 h, 200 µM (in vitro) [%]	viability at 48 h, 500 µM (in vitro) [%]	viability at 48 h, 1000 µM (in vitro) [%]	Optimal non-toxic concentration (PBMC viability not below 100% at 0.05 significance level and higher than 90%) (PBMCs; male, human) [µM]	viability at 48 h, 100 µM [1] [%]	viability at 48 h, 100 µM [2] [%]	viability at 48 h, 100 µM [3] [%]	also measured
COc1ccc(OCC(O)CN2CCN(CCO)CC2)c([N+](=O)[O-])c1 (centres unmarked) [Compound 2, 1-(4-(2-Hydroxyethyl)piperazin-1-yl)-3-(4-methoxy-2-nitrophenoxy)propan-2-ol]	102 ± 12	100 ± 11	99 ± 6	98 ± 8	99 ± 11	93 ± 3	78 ± 4	500	103 ± 3	103 ± 9	105 ± 1	–
NCCCNCCSP(=O)(O)O [WR2721, amifostine, reference compound]	–	–	–	–	–	–	–	–	27 ± 3	9 ± 3	8 ± 4	viability at 48 h, 10 µM (in vitro; [4]): 93 ± 17%; viability at 48 h, 20 µM (in vitro; [4]): 75 ± 30%; viability at 48 h, 50 µM (in vitro; [4]): 37 ± 9%; viability at 48 h, 100 µM (in vitro; [4]): 33 ± 12%; viability at 48 h, 200 µM (in vitro; [4]): 35 ± 17%; viability at 48 h, 500 µM (in vitro; [4]): 37 ± 20%; Change of PBMC viability (in words) (PBMCs; 20 μM): significant decrease; Optimal non-toxic concentration (PBMC viability not below 100% at 0.05 significance level and higher than 90%) (PBMCs; PBMCs, MTS): 10 µM
O=[N+]([O-])c1ccc(OCC(O)CN2CCN(CCO)CC2)c(F)c1 (centres unmarked) [Compound 3, 1-(4-(2-Hydroxyethyl)piperazin-1-yl)-3-(2-fluoro-4-nitrophenoxy)propan-2-ol]	98 ± 5	95 ± 14	90 ± 9	92 ± 6	92 ± 5	92 ± 9	81 ± 11	500	94 ± 9	92 ± 14	103 ± 6	–
OCCN1CCN(CC(O)COc2cccc(Cl)c2)CC1 (centres unmarked) [Compound 6, 1-(4-(2-Hydroxyethyl)piperazin-1-yl)-3-(3-chlorophenoxy)propan-2-ol]	94 ± 12	96 ± 5	99 ± 4	99 ± 7	96 ± 6	94 ± 7	51 ± 4	500	85 ± 7	120 ± 26	97 ± 1	–
COc1cc([N+](=O)[O-])ccc1OCC(O)CN1CCN(CCO)CC1 (centres unmarked) [Compound 1, 1-(4-(2-Hydroxyethyl)piperazin-1-yl)-3-(2-methoxy-4-nitrophenoxy)propan-2-ol]	114 ± 14	110 ± 11	111 ± 15	101 ± 17	102 ± 21	97 ± 22	60 ± 10	500	141 ± 42	101 ± 16	111 ± 9	–
O=[N+]([O-])c1cc(OCC(O)CN2CCN(CCO)CC2)ccc1Cl (centres unmarked) [Compound 5, 1-(4-(2-Hydroxyethyl)piperazin-1-yl)-3-(4-chloro-3-nitrophenoxy)propan-2-ol]	121 ± 25	99 ± 8	111 ± 7	102 ± 9	107 ± 5	79 ± 3	44 ± 11	200	95 ± 6	89 ± 3	98 ± 3	–
NCCCNCCS [WR1065, reference compound]	57 ± 39	47 ± 34	19 ± 17	16 ± 14	21 ± 8	27 ± 9	–	–	20 ± 2	7 ± 4	3 ± 1	Decrease in cell viability of PBMCs (PBMCs; 10 μM (lowest tested concentration)): 43%
OCCN1CCN(CC(O)COc2ccc(F)cc2)CC1 (centres unmarked) [Compound 4, 1-(4-(2-Hydroxyethyl)piperazin-1-yl)-3-(4-fluorophenoxy)propan-2-ol]	104 ± 18	103 ± 26	112 ± 30	107 ± 30	110 ± 33	110 ± 28	105 ± 10	1000	99 ± 3	102 ± 6	103 ± 2	viability at 48 h, 2000 µM (in vitro): 53 ± 5%; viability at 48 h, 5000 µM (in vitro): 39 ± 5%
